Experiments:
Alternaria solani = test: in vivo preventive test on Alternaria test (tomatoes); conditions: single active compound
Excerpt: (§1) A synergistic effect of fungicides is always present when the fungicidal activity of the active compound combinations exceeds the total of the activities of the active compounds when applied individually. The expected activity for a given combination of two active compounds can be calculated as follows (cf. Colby, S. R., “Calculating Synergistic and Antagonistic Responses of Herbicide Combinations”, Weeds 1967, 15, 20-22):
(§2) • X is the efficacy when active compound A is applied at an application rate of m ppm (or g/ha), • Y is the efficacy when active compound B is applied at an application rate of n ppm (or g/ha), • E is the efficacy when the active compounds A and B are applied at application rates of m and n ppm (or g/ha), respectively, and then
(§3) The degree of efficacy, expressed in % is denoted. 0% means an efficacy which corresponds to that of the control while an efficacy of 100% means that no disease is observed.
Example: In Vivo Preventive Test on Alternaria Test (Tomatoes)
(§4) • Solvent: 24.5 parts by weight of acetone • 24.5 parts by weight of dimethylacetamide • Emulsifier: 1 part by weight of alkylaryl polyglycol ether
(§5) To produce a suitable preparation of active compound, 1 part by weight of active compound is mixed with the stated amounts of solvent and emulsifier, and the concentrate is diluted with water to the desired concentration.
(§6) To test for preventive activity, young plants are sprayed with the preparation of active compound at the stated rate of application. After the spray coating has dried on, the plants are inoculated with an aqueous spore suspension of Alternaria solani. The plants are then placed in an incubation cabinet at approximately 20° C. and a relative atmospheric humidity of 100%.
The test is evaluated 3 days after the inoculation. 0% means an efficacy which corresponds to that of the untreated control while an efficacy of 100% means that no disease is observed.

Venturia inaequalis = test: in vivo preventive test on Venturia test (apples); conditions: single active compound
Excerpt: as §1, §2, §3
Example: In Vivo Preventive Test on Venturia Test (Apples)
as §4, §5
as §6, with “conidia” for “spore”, “the causal agent of apple scab (Venturia inaequalis) and” for “Alternaria solani. The plants are”, “remain for 1 day” for “placed”
The plants are then placed in a greenhouse at approximately 21° C. and a relative atmospheric humidity of approximately 90%.
(§7) The test is evaluated 10 days after the inoculation. 0% means an efficacy which corresponds to that of the untreated control, while an efficacy of 100% means that no disease is observed.

Phakopsora pachyrhizi = test: in vivo preventive test on Phakopsora test (soybeans); conditions: single active compound
Excerpt: as §1, §2, §3
Example: In Vivo Preventive Test on Phakopsora Test (Soybeans)
as §4, §5
as §6, with “the causal agent of soybean rust (Phakopsora pachyrhizi) and stay for 24 h without light” for “Alternaria solani. The plants are then placed”, “24°” for “20°”, “95%.” for “100%.”
The plants remain in the incubation cabinet at approximately 24° C. and a relative atmospheric humidity of approximately 80% and a day/night interval of 12 h.
The test is evaluated 7 days after the inoculation. 0% means an efficacy which corresponds to that of the untreated control, while an efficacy of 100% means that no disease is observed.

Botrytis cinerea = test: in vivo preventive test on Botrytis test (beans); conditions: single active compound, the 3rd table
Excerpt: as §1, §2, §3
Example: In Vivo Preventive Test on Botrytis Test (Beans)
as §4, §5
To test for preventive activity, young plants are sprayed with the preparation of active compound. After the spray coating has dried on, 2 small pieces of agar covered with growth of Botrytis cinerea are placed on each leaf. The inoculated plants are placed in a darkened chamber at 20° C. and a relative atmospheric humidity of 100%.
2 days after the inoculation, the size of the lesions on the leaves is evaluated. 0% means an efficacy which corresponds to that of the untreated control, while an efficacy of 100% means that no disease is observed.

Uromyces appendiculatus = test: in vivo preventive test on Uromyces test (beans); conditions: single active compound, the 7th table
Excerpt: as §1, §2, §3
Example: In Vivo Preventive Test on Uromyces Test (Beans)
as §4
To produce a suitable preparation of active compound, 1 part by weight of active compound is mixed with the stated amounts of solvent and emulsifier, and the concentrate is diluted with water to the desired concentration. To test for preventive activity, young plants are sprayed with the preparation of active compound at the stated rate of application. After the spray coating has dried on, the plants are inoculated with an aqueous spore suspension of the causal agent of bean rust (Uromyces appendiculatus) and then remain for 1 day in an incubation cabinet at approximately 20° C. and a relative atmospheric humidity of 100%. The plants are then placed in a greenhouse at approximately 21° C. and a relative atmospheric humidity of approximately 90%.
as §7

In the case of `CO/C=C(/C(=O)OC)c1ccccc1Oc1cc(Oc2ccccc2C#N)ncn1` [1.3, azoxystrobin], the “Efficacy in % found” value (Alternaria solani; 0.25 ppm a.i., the 1st table) is reported as 45%, the “Efficacy in % found” value (Alternaria solani; 0.25 ppm a.i., the 2nd table) is reported as 35% and the “Efficacy in % found” value (Alternaria solani; 0.5 ppm a.i., the 1st table) is reported as 35%. The “Efficacy in % found” value (Alternaria solani; 0.5 ppm a.i., the 2nd table) was 8%, the “Efficacy in % found” value (Alternaria solani; 1 ppm a.i., the 1st table) was 65% and the “Efficacy in % found” value (Alternaria solani; 1 ppm a.i., the 2nd table) was 15%. For the same molecule, the “Efficacy in % found” value (Venturia inaequalis; 0.5 ppm a.i., the 8th table) was 25%, the “Efficacy in % found” value (Venturia inaequalis; 0.5 ppm a.i., the 9th table) was 88% and the “Efficacy in % found” value (Venturia inaequalis; 1 ppm a.i., the 8th table) was 30%. The “Efficacy in % found” value (Venturia inaequalis; 1 ppm a.i., the 9th table) was 94%, the “Efficacy in % found” value (Phakopsora pachyrhizi; 0.25 ppm a.i., the 4th table) was 0% and the “Efficacy in % found” value (Phakopsora pachyrhizi; 0.25 ppm a.i., the 5th table) was 16%. For the same molecule, the “Efficacy in % found” value (Phakopsora pachyrhizi; 0.5 ppm a.i., the 4th table) was 18%, the “Efficacy in % found” value (Phakopsora pachyrhizi; 0.5 ppm a.i., the 5th table) was 41% and the “Efficacy in % found” value (Botrytis cinerea; 0.25 ppm a.i.) was 30%. For the same molecule, the “Efficacy in % found” value (Botrytis cinerea; 0.5 ppm a.i.) was 15%.
With `CO/C=C(/C(=O)OC)c1ccccc1COc1cccc(C(F)(F)F)n1` [1.16, picoxystrobin] the “Efficacy in % found” value (Alternaria solani; 0.25 ppm a.i., the 1st table) was 30%, the “Efficacy in % found” value (Alternaria solani; 0.25 ppm a.i., the 2nd table) was 8% and the “Efficacy in % found” value (Alternaria solani; 0.5 ppm a.i., the 1st table) was 30%. For the same molecule, the “Efficacy in % found” value (Alternaria solani; 0.5 ppm a.i., the 2nd table) was 8%, the “Efficacy in % found” value (Alternaria solani; 1 ppm a.i., the 1st table) was 50% and the “Efficacy in % found” value (Alternaria solani; 1 ppm a.i., the 2nd table) was 35%. The “Efficacy in % found” value (Venturia inaequalis; 0.5 ppm a.i., the 9th table) was 13%, the “Efficacy in % found” value (Phakopsora pachyrhizi; 0.25 ppm a.i., the 4th table) was 0% and the “Efficacy in % found” value (Phakopsora pachyrhizi; 0.25 ppm a.i., the 5th table) was 0%. For the same molecule, the “Efficacy in % found” value (Phakopsora pachyrhizi; 0.5 ppm a.i., the 4th table) was 24%, the “Efficacy in % found” value (Phakopsora pachyrhizi; 0.5 ppm a.i., the 5th table) was 0% and the “Efficacy in % found” value (Phakopsora pachyrhizi; 1 ppm a.i., the 4th table) was 9%. For the same molecule, the “Efficacy in % found” value (Phakopsora pachyrhizi; 1 ppm a.i., the 5th table) was 62%, the “Efficacy in % found” value (Botrytis cinerea; 0.25 ppm a.i.) was 40% and the “Efficacy in % found” value (Botrytis cinerea; 0.5 ppm a.i.) was 40%.
In the case of `CON=C(C(=O)OC)c1ccccc1CON=C(C)c1cccc(C(F)(F)F)c1` [1.22, trifloxystrobin], the “Efficacy in % found” value (Uromyces appendiculatus; 0.25 ppm a.i.) is reported as 0%, the “Efficacy in % found” value (Uromyces appendiculatus; 1 ppm a.i.) is reported as 0% and the “Efficacy in % found” value (Alternaria solani; 0.25 ppm a.i., the 1st table) is reported as 8%. The “Efficacy in % found” value (Alternaria solani; 0.5 ppm a.i., the 1st table) was 24%, the “Efficacy in % found” value (Alternaria solani; 1 ppm a.i., the 1st table) was 35% and the “Efficacy in % found” value (Venturia inaequalis; 0.25 ppm a.i., the 10th table) was 0%. For the same molecule, the “Efficacy in % found” value (Venturia inaequalis; 0.5 ppm a.i., the 10th table) was 5%, the “Efficacy in % found” value (Venturia inaequalis; 1 ppm a.i., the 10th table) was 5% and the “Efficacy in % found” value (Phakopsora pachyrhizi; 0.25 ppm a.i., the 6th table) was 0%. The “Efficacy in % found” value (Phakopsora pachyrhizi; 0.5 ppm a.i., the 6th table) was 0% and the “Efficacy in % found” value (Phakopsora pachyrhizi; 1 ppm a.i., the 6th table) was 0%.
For `CCC1CC(C)(C)c2cccc(NC(=O)c3cccnc3C(F)F)c21` (stereo not drawn) [(I-3), 2-(difluoromethyl)-N-(3-ethyl-1,1-dimethyl-2,3-dihydro-1H-inden-4-yl)nicotinamide], the “Efficacy in % found” value (Venturia inaequalis; 0.25 ppm a.i., the 8th table) was 10%, the “Efficacy in % found” value (Venturia inaequalis; 1 ppm a.i., the 8th table) was 13% and the “Efficacy in % found” value (Venturia inaequalis; 1 ppm a.i., the 10th table) was 15%. The “Efficacy in % found” value (Phakopsora pachyrhizi; 0.5 ppm a.i., the 6th table) was 28% and the “Efficacy in % found” value (Phakopsora pachyrhizi; 1 ppm a.i., the 6th table) was 38%.
In the case of `CC[C@@H]1CC(C)(C)c2cccc(NC(=O)c3cccnc3C(F)F)c21` [(I-4), 2-(difluoromethyl)-N-[(3R)-3-ethyl-1,1-dimethyl-2,3-dihydro-1H-inden-4-yl]nicotinamide], the “Efficacy in % found” value (Venturia inaequalis; 0.25 ppm a.i., the 8th table) is reported as 10%, the “Efficacy in % found” value (Venturia inaequalis; 1 ppm a.i., the 10th table) is reported as 37% and the “Efficacy in % found” value (Phakopsora pachyrhizi; 0.5 ppm a.i., the 4th table) is reported as 87%. For the same molecule, the “Efficacy in % found” value (Phakopsora pachyrhizi; 1 ppm a.i., the 4th table) was 87% and the “Efficacy in % found” value (Botrytis cinerea; 0.5 ppm a.i.) was 15%.
For `CCCC1CC(C)(C)c2cccc(NC(=O)c3cccnc3C(F)F)c21` (stereo not drawn) [(I-5), 2-(difluoromethyl)-N-(1,1-dimethyl-3-propyl-2,3-dihydro-1H-inden-4-yl)nicotinamide], the “Efficacy in % found” value (Uromyces appendiculatus; 0.25 ppm a.i.) was 93% and the “Efficacy in % found” value (Venturia inaequalis; 1 ppm a.i., the 10th table) was 10%.
`CCC[C@@H]1CC(C)(C)c2cccc(NC(=O)c3cccnc3C(F)F)c21` [(I-6), 2-(difluoromethyl)-N-[(3R)-1,1-dimethyl-3-propyl-2,3-dihydro-1H-inden-4-yl]nicotinamide] was tested, and the “Efficacy in % found” value (Alternaria solani; 0.5 ppm a.i., the 1st table) was 30%, the “Efficacy in % found” value (Phakopsora pachyrhizi; 0.25 ppm a.i., the 5th table) was 95% and the “Efficacy in % found” value (Phakopsora pachyrhizi; 1 ppm a.i., the 5th table) was 93%.
